Experimental data as given in patent US9271971B2, “Pyrido[3,4-B]indoles and methods of use” (Medivation Technologies, Inc., priority 2009, dated 2016).

How the values were obtained:
[1] = biological target: T1, human recombinant adrenergic α2C receptor (Homo sapiens, UniProt P18825); experiment: Adrenergic α2C radioligand binding assay; settings: [3H]MK-912 specific binding, read-out: Percent Inhibition of ligand binding, Adrenergic (0.1 μM ligand conc.) α2C
T1 construct: expressed in transfected cells; host or cells: insect Sf9 cells
T1 sequence (P18825 1-462): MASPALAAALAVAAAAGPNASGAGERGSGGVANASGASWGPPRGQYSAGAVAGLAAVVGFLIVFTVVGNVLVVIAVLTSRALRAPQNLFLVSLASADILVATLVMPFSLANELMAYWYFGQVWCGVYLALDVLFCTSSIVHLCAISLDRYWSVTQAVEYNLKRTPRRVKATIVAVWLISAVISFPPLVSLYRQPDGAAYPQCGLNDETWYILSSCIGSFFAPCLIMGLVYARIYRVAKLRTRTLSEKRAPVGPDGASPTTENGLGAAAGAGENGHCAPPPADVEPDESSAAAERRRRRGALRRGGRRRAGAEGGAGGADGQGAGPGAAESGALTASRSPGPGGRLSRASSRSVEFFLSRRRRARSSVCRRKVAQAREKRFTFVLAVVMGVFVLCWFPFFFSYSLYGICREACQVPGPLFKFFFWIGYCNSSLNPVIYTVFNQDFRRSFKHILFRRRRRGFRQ
Description: To evaluate in radioligand binding assays the activity of compounds of the invention, human recombinant adrenergic α2C receptor expressed in insect Sf9 cells [Uhlen, S et al., J. Pharmacol. Exp. Ther. (1994), 271:1558] in a modified Tris-HCl buffer (50 mM Tris-HCl, pH 7.4, 12.5 mM MgCl2, 2 mM EDTA) was used. Compounds of the invention were incubated with 1 nM [^3H]MK-912 for 60 min. at 25° C. Non-specific binding was estimated in the presence of 10 μM WB-4101. Receptor proteins were filtered and washed, the filters were then counted to determine [^3H]MK-912 specifically bound. Compounds were screened at 1 μM or lower, using 1% DMSO as vehicle. Compounds of the invention were tested in this biochemical assay. Biochemical assay results for representative compounds were presented as the percent inhibition of specific binding in Table 3.

[2] = biological target: T2, human recombinant adrenergic α1D receptor (Homo sapiens, UniProt P25100); experiment: Adrenergic α1D radioligand binding assay; settings: [3H]Prozosin specific binding; for inhibition at 0.1 µM: read-out: Percent Inhibition of ligand binding, Adrenergic (0.1 μM ligand conc.) α1D
T2 construct: expressed in transfected cells; host or cells: human embryonic kidney (HEK-293) cells
T2 sequence (P25100 1-572): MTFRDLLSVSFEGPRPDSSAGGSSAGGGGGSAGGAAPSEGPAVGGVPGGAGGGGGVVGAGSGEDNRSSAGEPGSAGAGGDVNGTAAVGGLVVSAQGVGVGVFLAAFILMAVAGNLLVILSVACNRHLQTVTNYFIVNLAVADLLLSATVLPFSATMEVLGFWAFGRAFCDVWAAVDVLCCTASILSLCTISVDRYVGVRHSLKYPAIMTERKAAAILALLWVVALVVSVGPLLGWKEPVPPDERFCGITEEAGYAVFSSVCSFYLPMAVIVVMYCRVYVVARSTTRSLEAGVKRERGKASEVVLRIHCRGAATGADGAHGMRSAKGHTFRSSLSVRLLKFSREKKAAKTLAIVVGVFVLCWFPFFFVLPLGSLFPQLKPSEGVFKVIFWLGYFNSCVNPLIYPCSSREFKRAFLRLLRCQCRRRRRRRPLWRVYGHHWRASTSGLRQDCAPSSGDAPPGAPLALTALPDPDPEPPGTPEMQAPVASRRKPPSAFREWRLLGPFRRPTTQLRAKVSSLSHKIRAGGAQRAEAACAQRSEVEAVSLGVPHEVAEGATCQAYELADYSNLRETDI
Description: To evaluate in radioligand binding assays the activity of compounds of the invention, human recombinant adrenergic α1D receptor expressed in human embryonic kidney (HEK-293) cells [Kenny, B. A. et al. Br. J. Pharmacol. (1995), 115(6):981] in a 50 mM Tris-HCl buffer, pH 7.4, was used. Compounds of invention were incubated with 0.6 nM [^3H]Prozosin for 60 min. at 25° C. Non-specific binding was estimated in the presence of 10 μM phentolamine. Receptor proteins were filtered and washed, the filters were then counted to determine [^3H]Prozosin specifically bound. Compounds were screened at 1 μM or lower, using 1% DMSO as vehicle. Compounds of the invention were tested in this biochemical assay. Biochemical assay results for representative compounds were presented as the percent inhibition of specific binding in Table 3.

[3] = biological target: human recombinant serotonin (5-Hydroxytryptamine) 5-HT7 receptor (Homo sapiens, UniProt P34969); experiment: Serotonin 5-HT7 radioligand binding assay; settings: [3H]LSD specific binding, read-out: Percent Inhibition of ligand binding, Serotonin (1 μM ligand concentration) 5-HT7
human recombinant serotonin (5-Hydroxytryptamine) 5-HT7 receptor, sequence (P34969 whole entry): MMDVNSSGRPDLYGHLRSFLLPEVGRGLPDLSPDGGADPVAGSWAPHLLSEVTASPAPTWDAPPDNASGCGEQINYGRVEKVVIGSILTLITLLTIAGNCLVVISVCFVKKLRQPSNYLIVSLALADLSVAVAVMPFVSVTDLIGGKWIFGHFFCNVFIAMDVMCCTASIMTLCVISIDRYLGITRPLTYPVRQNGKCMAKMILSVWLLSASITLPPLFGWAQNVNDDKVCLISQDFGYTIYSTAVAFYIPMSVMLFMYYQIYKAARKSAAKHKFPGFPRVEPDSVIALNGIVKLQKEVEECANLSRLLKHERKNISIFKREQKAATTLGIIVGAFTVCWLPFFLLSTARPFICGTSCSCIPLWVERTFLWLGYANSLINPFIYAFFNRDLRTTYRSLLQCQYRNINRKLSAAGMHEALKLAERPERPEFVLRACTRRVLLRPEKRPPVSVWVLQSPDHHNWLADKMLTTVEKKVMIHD
Description: To evaluate in radioligand binding assays the activity of compounds of the invention, human recombinant serotonin (5-Hydroxytryptamine) 5-HT7 receptor expressed in Chinese hamster ovary (CHO) cells [Roth, B. L. et al., J. Pharmacol. Exp. Ther. (1994), 268:1403; Shen, Y. et al., J. Biol. Chem. (1993), 268:18200] in a modified Tris-HCl buffer (50 mM Tris-HCl, pH 7.4, 10 mM MgCl2, 0.5 mM EDTA) was used. Compounds of invention were incubated with 5.5 nM [^3H] Lysergic acid diethylamide (LSD) for 2 h at 25° C. Non-specific binding was estimated in the presence of 10 μM Serotonin (5-HT). Receptor proteins were filtered and washed, the filters were then counted to determine [^3H]LSD specifically bound. Compounds were screened at 1 μM or lower, using 1% DMSO as vehicle. Biochemical assay results are presented as the percent inhibition of specific binding in Table 4.

[4] = biological target: human recombinant dopamine D2L receptor (Homo sapiens, UniProt P14416); experiment: Dopamine D2L radioligand binding assay; settings: [3H]Spiperone specific binding; for inhibition at 1 µM: read-out: Percent Inhibition of ligand binding, Dopamine (1 μM ligand conc.) D2L
human recombinant dopamine D2L receptor, sequence (P14416 whole entry): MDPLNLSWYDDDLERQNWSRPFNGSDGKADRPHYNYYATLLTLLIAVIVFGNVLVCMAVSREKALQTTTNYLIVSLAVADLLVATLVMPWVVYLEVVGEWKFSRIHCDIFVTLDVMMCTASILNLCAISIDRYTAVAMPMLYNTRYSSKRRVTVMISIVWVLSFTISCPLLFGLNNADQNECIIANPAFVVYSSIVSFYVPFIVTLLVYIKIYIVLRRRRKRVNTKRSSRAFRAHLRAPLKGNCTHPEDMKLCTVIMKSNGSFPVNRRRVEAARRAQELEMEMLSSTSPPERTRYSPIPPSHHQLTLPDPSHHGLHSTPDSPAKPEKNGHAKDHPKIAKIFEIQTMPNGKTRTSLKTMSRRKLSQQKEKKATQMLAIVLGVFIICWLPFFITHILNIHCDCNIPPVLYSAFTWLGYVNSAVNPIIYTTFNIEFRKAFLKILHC
Description: To evaluate in radioligand binding assays the activity of compounds of the invention, human recombinant dopamine D2L receptor expressed in Chinese hamster ovary (CHO) cells [Grandy, D. K. et al. Proc. Natl. Acad. Sci. USA. (1989), 86:9762; Hayes, G. et al., Mol. Endocrinol. (1992), 6:920] in a modified Tris-HCl buffer (50 mM Tris-HCl, pH 7.4, 1.4 mM Ascorbic Acid, 0.001% BSA, 150 mM NaCl) was used. Compounds of the invention were incubated with 0.16 nM [^3H]Spiperone for 120 min. at 25° C. Non-specific binding was estimated in the presence of 10 μM Haloperidol. Receptor proteins were filtered and washed, the filters were then counted to determine [^3H]Spiperone specifically bound. Compounds were screened at 1 μM or lower, using 1% DMSO as vehicle. Biochemical assay results are presented as the percent inhibition of specific binding in Table 3.

Row | SMILES | inhibition at 0.1 µM [1] [%] | inhibition at 0.1 µM [2] [%] | inhibition at 1 µM ([2]; 1 μM, read-out: Percent Inhibition of ligand binding, Adrenergic (1 μM ligand conc.) α1D) [%] | inhibition at 1 µM [3] [%] | inhibition at 1 µM [4] [%] | Percent Inhibition of ligand binding, Adrenergic (1 μM ligand conc.) α1D ([2]; 1 μM) [%] | Percent Inhibition of ligand binding, Dopamine (1 μM ligand conc.) D2L [4] [%]
1 | C/C(=C\n1c2c(c3cc(C)ccc31)C1CCN(C2)C1)c1ccc(Cl)cc1 (centres unmarked) [Compound 32] | 39 | 9 | 80 | 96 | -12 | – | –
2 | C/C(=C\n1c2c(c3cc(C)ccc31)C1CCN(C2)C1)c1ccncc1 (centres unmarked) [Compound 44] | 7 | 8 | – | 80 | 9 | – | –
3 | C/C(=C\n1c2c(c3cc(C)ccc31)C1CCN(C2)C1)c1ccc(Cl)cc1Cl (centres unmarked) [Compound 33] | 16 | -6 | – | 96 | – | 28 | −6
4 | COc1ccc(/C(C)=C/n2c3c(c4cc(C)ccc42)C2CCN(C3)C2)cc1 (centres unmarked) [Compound 45] | 3 | -1 | – | 93 | -2 | – | –
5 | C/C(=C\n1c2c(c3cc(C)ccc31)C1CCN(C2)C1)c1ccccc1F (centres unmarked) [Compound 38] | 13 | -3 | – | 95 | 1 | – | –
6 | Cc1ccc2c(c1)c1c(n2C(=O)Cc2ccc(Cl)cc2)CN2CCC1C2 (centres unmarked) [Compound 36] | 24 | -2 | – | 75 | 3 | – | –
